This is an account of results in patent US20080119471A1, “Piperazine urea derivatives for the treatment of endometriosis” (priority 2004, published 2008).

Broadly, the Ki is the equilibrium dissociation constant of an inhibitor or competing ligand from its target. A lower Ki goes with a stronger hold on the target.

Sequences and labels used below:
T1: human CCR1 (Homo sapiens, UniProt P32246)
T1 sequence (P32246 1-355): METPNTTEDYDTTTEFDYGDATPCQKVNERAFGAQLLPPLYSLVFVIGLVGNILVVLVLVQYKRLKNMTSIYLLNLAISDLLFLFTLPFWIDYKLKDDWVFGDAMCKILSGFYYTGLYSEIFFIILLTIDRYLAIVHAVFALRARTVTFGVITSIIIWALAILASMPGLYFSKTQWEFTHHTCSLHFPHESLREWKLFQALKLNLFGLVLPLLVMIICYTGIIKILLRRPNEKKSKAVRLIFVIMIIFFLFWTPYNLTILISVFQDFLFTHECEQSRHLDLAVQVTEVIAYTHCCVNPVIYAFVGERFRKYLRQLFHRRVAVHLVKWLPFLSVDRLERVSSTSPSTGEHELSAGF

B1: MIP-1β: human chemokine that binds human CCR1 with low affinity (protein, UniProt P13236 24-92, looked up)
C-C motif chemokine 4: APMGSDPPTACCFSYTARKLPRNFVVDYYETSSLCSQPAVVFQTKRSKQVCADPSESWVQEYVYDLELN

One assay concerns the target T1, human CCR1.
Assay: not given
The settings on record: result in words; cited from earlier work.
On to “MCP-1: human chemokine that binds human CCR1 with low affinity; a ligand for CCR2”, for which the “signalling through human CCR1” value was “neither ligand is able to signal”.
For the molecule B1, the “signalling through human CCR1” value is listed as “neither ligand is able to signal”.

Another assay deals with T1, human CCR1. In words: In vitro assay for CCR1 receptor antagonists: competition with 125I-MIP-1α or 125I-RANTES on 293MR cells. It is filed as binding. Also noted: expressed in transfected cells. The settings on record: Table 2. As to the method: Human CCR1 cDNA was provided through collaboration with Dr. Stephen Peiper of the University of Louisville, Ky. […] The plasmid also contained hygromycin and puromycin resistance genes. Calcium phosphate transfection standard protocols were used to insert the plasmid into the HEK293 cells. Cells were selected for stable expression of CCR1 using hygromycin and puromycin selection.
• 130 mM NaCl, 5 mM KCl, 1 mM MnCl2, 50 mM Tris, 30 μg/ml bacitracin, 0.1% BSA, pH 7.4.
The stock solution of the compounds was 1 mM in 100% DMSO. […] A serial 1:3 dilution from the highest concentration was made with assay buffer. Six concentrations of each compound were usually being screened to generate a dose curve from which the Ki value was determined.
Assays were performed in 96-well v-bottom microtiter plates in a total volume of 100 μl. […] The cells were washed once in PBS and resuspended in the assay buffer to about 1.1×10^5 cells/mL.
The radioactivities in each well were determined by scintillation counting following addition of 50 μl of scintillation fluid.
The nonspecific binding was defined by the binding in the presence of 100 nM of unlabeled MIP-1α or RANTES.
The dose curves of each compound with 6 concentration points were generated and IC50 values were determined by fitting the data to the log-logit equation (linear) with an EXCEL spread-sheet.
On to `C[C@@H]1CN(C(=O)COc2ccc(Cl)cc2CNC(N)=O)[C@@H](C)CN1Cc1ccc(F)cc1` [compound 14], for which the inhibitory constant (Ki) turned out to be 2 nM. This lies in the single-digit nanomolar range.
In turn, `CC1CN(C(=O)COc2ccc(Cl)cc2N)C(C)CN1Cc1ccc(F)cc1` (stereo not drawn) [compound 15] yielded a Ki of 9 nM.
Molecule `CC1CN(Cc2ccc(F)cc2)CCN1C(=O)COc1ccc(Cl)c([N+](=O)[O-])c1` (stereo not drawn) [compound 16] showed a Ki of 21 nM. This Ki is about 2.3-fold higher than that of the molecule before.
Still for that read-out and setting: next, `C[C@@H]1CN(C(=O)COc2ccc(Cl)cc2NCc2ccccc2)[C@@H](C)CN1Cc1ccc(F)cc1` [compound 17]: 42 nM; `CCCC(C)Nc1cc(Cl)ccc1OCC(=O)N1C[C@@H](C)N(Cc2ccc(F)cc2)C[C@@H]1C` (stereo partly drawn) [compound 18]: 87 nM.
The molecule `CC(=O)Nc1cc(Cl)ccc1OCC(=O)N1CCN(Cc2ccc(F)cc2)CC1C` (stereo not drawn) [compound 19] registered a Ki of 5 nM.
On to `CCCC(=O)Nc1cc(Cl)ccc1OCC(=O)N1C[C@@H](C)N(Cc2ccc(F)cc2)C[C@@H]1C` [compound 20], for which the Ki was found to be 7 nM.
The molecule `CC(C)C(=O)Nc1cc(Cl)ccc1OCC(=O)N1C[C@@H](C)N(Cc2ccc(F)cc2)C[C@@H]1C` [compound 21] displayed a Ki of 13 nM. This Ki lies about 1.9-fold higher than the previous one.
Still for that read-out and setting: next, `COCC(=O)Nc1cc(Cl)ccc1OCC(=O)N1C[C@@H](C)N(Cc2ccc(F)cc2)C[C@@H]1C` [compound 22]: 3 nM; `COC(=O)CCC(=O)Nc1cc(Cl)ccc1OCC(=O)N1C[C@@H](C)N(Cc2ccc(F)cc2)C[C@@H]1C` [compound 23]: 5 nM.
For the molecule `C[C@@H]1CN(C(=O)COc2ccc(Cl)cc2NS(C)(=O)=O)[C@@H](C)CN1Cc1ccc(F)cc1` [compound 24], the affinity, expressed as Ki, was 6 nM.
`C[C@@H]1CN(C(=O)COc2ccc(Cl)cc2NC(=O)CN)[C@@H](C)CN1Cc1ccc(F)cc1` [compound 26] yielded a Ki of 1 nM. This Ki is about 6-fold lower than that of the molecule before.
For the molecule `C[C@@H]1CN(C(=O)COc2ccc(Cl)cc2NC(=O)CNC(N)=O)[C@@H](C)CN1Cc1ccc(F)cc1` [compound 27], the affinity, expressed as Ki, was 2 nM.
Consider `CCN(C)C(C)c1cc(Cl)ccc1OCC(=O)N1C[C@@H](C)N(Cc2ccc(F)cc2)C[C@@H]1C` (stereo partly drawn) [compound 28], for which affinity was put at a Ki of 18 nM. Compared with the last molecule, the Ki is about 9-fold higher.
As for `CC(c1cc(Cl)ccc1OCC(=O)N1C[C@@H](C)N(Cc2ccc(F)cc2)C[C@@H]1C)n1ccnc1` (stereo partly drawn) [compound 29], the Ki was found to be 6 nM.
`C[C@@H]1CN(C(=O)COc2ccc(Cl)cc2C(=O)NCCN)[C@@H](C)CN1Cc1ccc(F)cc1` [compound 30] came in with a Ki of 9 nM. This Ki is about 1.5-fold higher than that of the molecule before.
In the case of `CC(=O)Nc1ccccc1OCC(=O)N1CCN(Cc2ccc(F)cc2)CC1C` (stereo not drawn) [compound 31], the Ki stood at 106 nM.
As to `C[C@@H]1CN(C(=O)COc2cccc(C#N)c2)[C@@H](C)CN1Cc1ccc(F)cc1` [compound 32], the Ki came out at 68 nM.
As to `Cc1cc(O)cc(OCC(=O)N2C[C@H](C)N(Cc3ccc(F)cc3)C[C@H]2C)c1` [compound 33], the affinity corresponds to a Ki of 5 nM.
`COC(=O)c1ccc(OC)cc1OCC(=O)N1C[C@@H](C)N(Cc2ccc(F)cc2)C[C@@H]1C` [compound 34] displayed a Ki of 31 nM.
Molecule `CC(O)C1CN(Cc2ccc(F)cc2)CCN1C(=O)COc1ccc(Cl)cc1` (stereo not drawn) [compound 35] registered a Ki of 13 nM.
`C=CC(O)CC1CN(Cc2ccc(F)cc2)CCN1C(=O)COc1ccc(Cl)cc1` (stereo not drawn) [compound 36] gave a Ki of 172 nM.
For the molecule `O=C(COc1ccc(Cl)cc1)N1CCN(Cc2ccc(F)cc2)C(C(F)(F)F)C1` (stereo not drawn) [compound 37], the Ki was 148 nM. The Ki values of the last two molecules are within 1.5-fold of each other.
Consider `C[C@@H]1CN(C(=O)COc2ccc3ccc(=O)oc3c2)[C@@H](C)CN1Cc1ccc(F)cc1` [compound 39], for which affinity was put at a Ki of 18 nM.
Turning to `C[C@@H]1CN(C(=O)COc2ccc(Cl)cc2N2C(=O)c3ccccc3C2=O)[C@@H](C)CN1Cc1ccc(F)cc1` [compound 40], the Ki is 64 nM.
Consider `C[C@@H]1CN(C(=O)CC(CN)c2ccc(Cl)cc2)[C@@H](C)CN1Cc1ccc(F)cc1` (stereo partly drawn) [compound 41], for which the affinity, expressed as Ki, was 56 nM.
Turning to `CC(=O)NCC(CC(=O)N1C[C@@H](C)N(Cc2ccc(F)cc2)C[C@@H]1C)c1ccc(Cl)cc1` (stereo partly drawn) [compound 42], the affinity corresponds to a Ki of 26 nM.
On to `C[C@@H]1CN(C(=O)CC(NS(C)(=O)=O)c2ccc(Cl)cc2)[C@@H](C)CN1Cc1ccc(F)cc1` (stereo partly drawn) [compound 43], for which the Ki was found to be 32 nM.
For `CCC1CN(Cc2ccc(F)cc2)CCN1C(=O)COc1ccc(Cl)cc1` (stereo not drawn) [compound 44], the Ki worked out at 15 nM.
The molecule `CCC[C@@H]1CN(Cc2ccc(F)cc2)CCN1C(=O)COc1ccc(Cl)cc1` [compound 45] returned a Ki of 75 nM.
On the same count and under the same terms, then `O=C(COc1ccc(Cl)cc1)N1CCN(Cc2ccc(F)cc2)CC12CC2` [compound 46], with 74 nM.
Turning to `C[C@@H]1CN(C(=O)COc2ccc(Cl)cc2C(N)=O)[C@@H](C)CN1Cc1ccc(F)cc1` [compound 47], the Ki amounted to 3 nM.
The molecule `C[C@@H]1CN(Cc2ccc(F)cc2)[C@@H](CC#N)CN1C(=O)COc1ccc(Cl)cc1` [compound 48] had a Ki of 38 nM. Compared with the last molecule, the Ki is about 13-fold higher.
The same measure, in the same setting: next, `C[C@@H]1CN(Cc2ccc(F)cc2)[C@@H](CN2CCOCC2)CN1C(=O)COc1ccc(Cl)cc1` [compound 49]: 109 nM.
